Patent publication US7037663B2, “Human zona pellucida protein 3 and uses thereof” (Eastern Virginia Medical School, priority 1998, dated 2006)

Experiments:
sperm = assay: Sperm motion parameters by computer analyzer; settings: data not shown
human sperm [1] = assay: Acrosome reaction of live sperm by FITC-PSA, second series; format: cell-based; settings: A23187 5 μM
Procedure: Determination of the acrosome reaction—The proportion of live acrosome-reacted spermatozoa incubated under capacitating conditions was determined with the fluorescent probe fluorescein isothiocyanate-labeled Pisum Sativum Agglutinin (FITC-PSA, Sigma) after staining with a supravital stain (Hoechst 33258, Sigma) following established techniques (12,13). At least 200 sperm per sample were evaluated in duplicate at 600× magnification using an epifluorescence microscope equipped with phase-contrast optics (Optiphot; Nikon, Melville, N.Y.). Slides were coded and read in a blind fashion.
A calcium ionophore agent (A23187, Sigma) tested at 5 μM and human acid solubilized zona pellucida tested at a final concentration of 4 zona/10 μl were used as positive controls (20). In further experiments, the acrosomal status was assessed by transmission electron microscopy. Spermatozoa were fixed by mixing sperm suspensions with equal volumes of 2% (v/v) glutaraldehyde (in 3 mM CaCl2 and 0.1 M sodium cacodylate); thereafter, samples were dehydrated twice and prepared for thin sectioning using previously published procedures. Ultrastructural examination was performed with a transmission electron microscope (Jeol JEM-1200 EX II, Peabody, Mass.).
Experiment 2: Characterization of the acrosome reaction inducing activity of the rhZP3 in dose- and sperm capacitation-dependency studies—Motile sperm fractions from 29 ejaculates of 11 different donors were incubated under capacitating conditions for 3 hours and assayed for acrosome reaction using FITC-PSA. Following swim-up, sperm aliquots were pre-incubated for 30 minutes with rhZP3 (30 ng/ml), A23187 (positive control), culture medium from non-transfected PA-cells (NT) or sperm culture medium (negative controls). This was the initially selected dose of rhZP3 to be tested as it had proven to effect significant inhibition of sperm-zona binding in the HZA.
The dose-dependent effect of rhZP3 on acrosome reaction was examined in the swim-up fractions obtained from four different donors. The fractions were capacitated for 3 hours and exposed for 30 min to rhZP3 at final concentrations of 0, 7.5, 15, 30, 60, 120, 240, 480, 960 and 1920 ng/ml. The capacitation-dependency of the acrosome reaction-inducing activity of rhZP3 was assessed in the swim-up fractions of four ejaculates from four different donors. Capacitation times included: 0 (immediately post-swim-up), 1, 4, 8, 12 and 24 hours. After the capacitation period, rhZP3 was added to the sperm suspension at a final concentration of 30 ng/ml.
In another set of experiments, three different ejaculates were used to compare the effects of the rhZP3 (tested at 500 ng/ml) with those of solubilized zonae pellucidae and the calcium ionophore. Further, the induction of the acrosome reaction was assessed in parallel with FITC-PSA and transmission electron microscopy. The goal of these studies was to compare the morphological features of the acrosome reaction between agonists and also between the agonist-induced and basal exocytosis rates.

human sperm [2] = assay: Acrosome reaction of capacitated sperm by FITC/PSA with Hoechst 33258 viability stain, first series; format: cell-based; settings: NT 30 ng/ml, calcium ionophore 5 μM, rhZP3 30 ng/ml, solubilized zona 0.5 ZP/μl, mean (± SEM)
Procedure: The purified rhZP3 was also applied to test its activity to induce human sperm acrosome reaction. The motile sperm obtained by swim-up procedure were allowed to capacitate in HTF/0.5% HSA for four hours at 37° C. in 5% CO2 in huminified air. The motile sperm concentration used to detect acrosome reaction was set at 2 million/ml. A series of 100 ul of capacitated sperm aliquots with different inducers were prepared in Eppendorf vials and cultured in the incubator in 95% air, 5% CO2, at 37° C. for 30 minutes. The test was conducted as follows: positive control: calcium ionophore A23187 (Sigma) at 5 μM; negative controls: 1) sperm culture medium alone, and 2) protein isolated from the culture media of non-transfected PA-1 cells (NT); test: rhZP3. Triple slides were made for each assay. Hoechst 33258 stain was used for determination of sperm viability. Fluorescein isothiocyanate conjugated Pisum sativum agglutinin (FITC/PSA) (Sigma) staining technique was employed to evaluate the acrosome reaction (Cross et al, 1986). Blind reading was required for evaluation and at least 100˜200 cells from 5 random fields were evaluated per spot on the slide. […] The results were expressed as percentage of acrosome-reacted spermatozoa in the total population counted (Cross, 1986).
In some experiments, Solubilized zona pellucida were used as control to test its function to induce sperm acrosome reaction. The solubilized zona pellucida were prepared according to Franken et al (1996). Ooplasma was removed using a small glass micropipette. A vigorous pipetting action would break their zona causing ooplasma to be spilled into surrounding medium. The chosen amount of zonae was transferred into an eppendorf tube and was centrifuged for 15 minutes at 300×g. Using a steromicroscope, the media were removed with pipette, making sure not to disturb zona. The final result was to remove maximum medium. A chosen volume (depending on the zona concentration needed) of 10 mM HCl was added. Under the microscopic vision, zona/HCl was pipetted up and down until all zona were dissolved. Then 10 mM NaOH of equal volume as the HCl was added and mixed well to obtain the stock zona solution.

Gi proteins = assay: Pertussis toxin pre-incubation before rhZP3-induced acrosome reaction; format: cell-based, human
Procedure: Experiment 3: Acrosome reaction-inducing activity of rhZP3: effect on Gi proteins—Motile sperm fractions were obtained from the ejaculates of three donors and incubated under capacitating conditions. In each experiment, the test aliquot was pre-incubated with pertussis toxin (100 ng/ml final concentration) for 4 hours followed by incubation with rhZP3 (500 ng/ml). A control aliquot was incubated in culture medium alone for 4 hours and then treated with rhZP3 at the same dose. After 30 min exposure to rhZP3 or control conditions, sperm were assayed for acrosome reaction using FITC-PSA.

Row | Compound | sperm motion parameters, treatment versus control (sperm) | live, acrosome reacted sperm (human sperm [1]; rhZP3 30 ng/ml, 3 h capacitation, 30 min exposure) [%] | induction of the acrosome reaction (human sperm [1]; rhZP3 500 ng/ml, solubilized zona 4 zona/10 μl) [%] | % acrosome reacted-sperm (human sperm [2]; 4 h capacitation, 30 min) [%] | % sperm viability (human sperm [2]) | effect on basal rate of spontaneous acrosomal exocytosis (Gi proteins; pertussis toxin 100 ng/ml) | effect on induction of the acrosome reaction by rhZP3 (Gi proteins; pertussis toxin 100 ng/ml 4 h, then rhZP3 500 ng/ml 30 min)
1 | CNc1ccc2oc(C[C@H]3O[C@@]4(CC[C@H]3C)O[C@H]([C@H](C)C(=O)c3ccc[nH]3)[C@H](C)C[C@H]4C)nc2c1C(=O)O [Calcium ionophore, A23187, reference compound] | not significantly different | 19.4±4.1 | 34.7±5.2 | 22.5 | 96.5 (2.0) % |  | 
2 | pertussis toxin | not significantly different |  |  |  |  | did not modify the basal rate of spontaneous acrosomal exocytosis | inhibited the induction of the acrosome reaction by rhZP3
